# Measurements reported in article PMC8650031, “Santin and cirsimaritin from Betula pubescens and Betula pendula buds induce apoptosis in human digestive system cancer cells” (Journal of Cellular and Molecular Medicine, 2021).
# Tests used:
# [1] = tested on: colorectal adenocarcinoma DLD‐1 cells; experiment: MTT cell viability assay, DLD-1 cells; format: cell-based, human; conditions: for IC50: Homo sapiens, MTT; for reduction in viability: DLD-1, 100 μM
# Procedure: (§1) Viability of cells was determined using the MTT assay. Cells were plated in 96‐well plates at 1 × 10^4 cells per well and allowed to adhere for 24 h. […] MTT (3‐(4,5‐Dimethyl‐2‐thiazolyl)‐2,5‐diphenyl‐2H‐tetrazolium bromide, Sigma‐Aldrich, USA) solution was added to each well, and cells were incubated at 37°C for 4 h. The medium was then removed, and formazan crystals were dissolved in 100 μL of DMSO and 12.5 μL of Sorensen's glycine buffer on a plate shaker. Absorbance was measured at 570 nm using a microplate reader. IC50 values were calculated using GraphPad Prism software.
# DLD‐1 cells [2] = experiment: [3H]-thymidine incorporation (DNA biosynthesis), DLD-1; format: cell-based, human; conditions: DLD-1, 50 μM, 48 h
# Procedure: (§2) Cells were plated in 24‐well plates at 4 × 10^4 cells per well and allowed to adhere for 24 h. Cells were treated with the various concentrations of flavonoids (25, 50 and 100 μM) in 1 mL medium containing 0.5 μCi [^3H]‐thymidine (#MT6037, Hartmann Analytic, Germany) for 48 h. Medium was discarded, and cells were rinsed three times with phosphate buffered saline (PBS), and solubilized with 1 mL of 0.1 M sodium hydroxide containing 1% sodium dodecyl sulphate. Then, 9 mL of scintillation liquid (PerkinElmer, USA) was added, and radioactivity incorporated into DNA was measured using a scintillation counter.
# AGS cells [3] = experiment: Colony formation assay, AGS; format: cell-based, human; conditions: 48 h treatment then 7 days culture; for decrease in number of colonies: 12.5 μM
# Procedure: (§3) 2.5. Colony formation assay
# (§4) In total, 250 cells were plated in each well of 12-well plates and allowed to adhere for 24 h.
# (§5) Cells were treated with various concentrations of flavonoids (3.125, 6.25, 12.5, 25, 50 and 100 μM) for 48 h. Medium was discarded and fresh medium was added. After seven days, culture medium was removed and cells were washed once with PBS. Then, cells were fixed with 4% formaldehyde and stained with 0.1% crystal violet. […]
# p53 in DLD‐1 cells = experiment: p53 expression by Western blot and fluorescence microscopy, DLD-1; format: cell-based, human; conditions: DLD-1, 48 h treatment
# Procedure: (§6) Cells were seeded at a density of 1 × 10^5 cells per well in 6-well plates and allowed to adhere for 24 h. Cells were treated with various concentrations of flavonoids (12.5, 25, 50 and 100 […]
# (§7) Adherent and floating cells were harvested and sonicated. Obtained homogenates were supplemented with 1% protease and phosphatase inhibitor cocktail (#78440, Thermo Fisher Scientific, USA). A Lowry assay was performed to quantify protein content in the homogenates. Proteins (20–40 μg) were resolved on 7.5%, 10% or 12% SDS-PAGE gels using the Mini-Protean Tetra system (Bio-Rad, USA). Proteins were transferred to nitrocellulose membranes (Bio-Rad, USA) using the Mini Trans-Blot Cell wet blotting system (Bio-Rad, USA). Membranes were blocked with 5% skim milk for 1 hour at room temperature and probed overnight at 4 °C with primary antibodies. The following antibodies […]
# (§8) 1:1000), purchased from Cell Signaling Technology (USA); anti-p53 antibody (#sc-126, […]
# (§9) 1:500) obtained from Santa Cruz Biotechnology (USA); and anti-actin antibody (#A2066, 1:2000) purchased from Sigma-Aldrich (USA). After extensive washes, a secondary antibody solution in 5% skim milk (anti-mouse IgG-HRP, Sigma-Aldrich, #A9044, 1:5000; anti-rabbit IgG-HRP, Sigma-Aldrich, #A9169, 1:5000) was added for 1 h at room temperature.
# (§10) Membranes were incubated with ECL-HRP substrate (GE Healthcare, USA) and the signal was detected using the BioSpectrum Imaging System (Ultra-Violet Products, Ltd., UK).
# (§11) 2.8. Immunofluorescence microscopy
# (§12) Cells were plated in 96-well plates at 1 × 10^4 cells per well and allowed to adhere for 24 h.
# (§13) Cells were treated with the respective concentration of flavonoids and incubated for 48 h. […]
# (§14) The mass spectrometric detector was calibrated by analyzing flavonoid solutions in the concentration range 0.06‒2.0 mg/ml in the mode of selective monitoring of the most intense ions (M+ ‒ CH3) in the spectra of TMS derivatives of the determined components (Table S1).
# HepG2 cells [4] = experiment: [3H]-thymidine incorporation (DNA biosynthesis), HepG2; format: cell-based, human; conditions: HepG2, 50 μM, 48 h
# Procedure: as §2
# DLD‐1 cells [5] = experiment: Colony formation assay, DLD-1; format: cell-based, human; conditions: 48 h treatment then 7 days culture
# Procedure: as §3, §4, §5
# p53 in HepG2 cells = experiment: p53 expression by Western blot and fluorescence microscopy, HepG2; format: cell-based, human; conditions: HepG2, 48 h treatment
# Procedure: as §6, §7, §8, §9, §10, §11, §12, §13, §14
# HepG2 cells [6] = experiment: Colony formation assay, HepG2; format: cell-based, human; conditions: 48 h treatment then 7 days culture
# Procedure: as §3, §4, §5
# DLD‐1 cells [7] = experiment: Annexin V/propidium iodide apoptosis assay, DLD-1; format: cell-based, human; conditions: 48 h
# Procedure: (§15) Cells were seeded at a density of 1 × 10^5 cells per well in 6-well plates and allowed to adhere for 24 h. Cells were treated with various concentrations of flavonoids (12.5, 25, 50 and 100 μM) for 48 h. Floating and adherent cells were collected and assayed using a Dead Cell Apoptosis Kit with annexin V-fluorescein isothiocyanate (FITC) and propidium iodide (PI), for flow cytometry (#V13242, Thermo Fisher Scientific, USA), according to the manufacturer’s protocol. Briefly, cells were dispersed in 100 μL annexin-binding buffer containing 5 μL annexin V-FITC conjugate solution, 1 μg/mL PI and 1 μg/mL Hoechst 33342, and incubated for 15 min at room temperature. Then 400 μL of annexin-binding buffer was added, and the cell suspension was transferred to 96-well plates and visualised using fluorescence microscopy on a BD Pathway 855 system (Becton Dickinson, USA). Early […]
# (§16) red and blue fluorescence. […]
# [8] = tested on: hepatocellular carcinoma HepG2 cells; experiment: MTT cell viability assay, HepG2 cells; format: cell-based, human; conditions: for IC50: Homo sapiens, MTT; for reduction in viability: HepG2, 100 μM
# Procedure: as §1
# [9] = tested on: gastric adenocarcinoma AGS cells; experiment: MTT cell viability assay, AGS cells; format: cell-based, human; conditions: for IC50: Homo sapiens, MTT; for reduction in viability: 100 μM
# Procedure: as §1
# HepG2 cells [10] = experiment: Annexin V/propidium iodide apoptosis assay, HepG2; format: cell-based, human; conditions: 48 h
# Procedure: as §15, §16
# [11] = tested on: normal human skin fibroblasts (CCD25Sk); experiment: MTT cell viability assay, normal fibroblasts; format: cell-based; conditions: Skin fibroblast
# Procedure: as §1
# AGS cells [12] = experiment: Annexin V/propidium iodide apoptosis assay, AGS; format: cell-based, human; conditions: 48 h
# Procedure: as §15, §16
# AGS cells [13] = experiment: [3H]-thymidine incorporation (DNA biosynthesis), AGS; format: cell-based, human; conditions: 50 μM, 48 h
# Procedure: as §2
# p53 in AGS cells = experiment: p53 expression by Western blot and fluorescence microscopy, AGS; format: cell-based, human; conditions: 48 h treatment
# Procedure: as §6, §7, §8, §9, §10, §11, §12, §13, §14
structure (smiles),measurement,setting,value
"O=c1cc(-c2ccc(O)cc2)oc2cc(O)cc(O)c12 [apigenin, reference compound]",IC50,"[1]; DLD-1, 24 h",> 50 µM
same,IC50,"[1]; DLD-1, 48 h",43.6 ± 2 µM
same,IC50,"[1]; DLD-1, 72 h",> 50 µM
same,reduction of [3H]-thymidine incorporation,DLD‐1 cells [2],17.7%
same,decrease in number of colonies,AGS cells [3],13.2%
same,p53 level,p53 in DLD‐1 cells,up‐regulated
same,reduction of [3H]-thymidine incorporation,HepG2 cells [4],85.4%
same,decrease in number of colonies,"DLD‐1 cells [5]; DLD-1, 12.5 μM",23.5%
same,p53 level,p53 in HepG2 cells,up‐regulated
same,decrease in number of colonies,"HepG2 cells [6]; HepG2, 12.5 μM",61.8%
same,percentage of cells in the early stage of apoptosis,"DLD‐1 cells [7]; DLD-1, 50 μM",29.7%
same,percentage of cells in the late stage of apoptosis,"DLD‐1 cells [7]; DLD-1, 50 μM",9.4%
same,IC50,"[8]; HepG2, 24 h",> 50 µM
same,IC50,"[8]; HepG2, 48 h",> 50 µM
same,IC50,"[8]; HepG2, 72 h",37.9 ± 2.9 µM
same,IC50,[9]; 24 h,> 50 µM
same,IC50,[9]; 48 h,18.2 ± 1.3 µM
same,IC50,[9]; 72 h,23.4 ± 1.4 µM
same,percentage of cells in the early stage of apoptosis,"HepG2 cells [10]; HepG2, 50 μM",20.5%
same,percentage of cells in the late stage of apoptosis,"HepG2 cells [10]; HepG2, 50 μM",12.3%
same,IC50,[11]; 24 h,> 50 µM
same,IC50,[11]; 48 h,> 50 µM
same,IC50,[11]; 72 h,> 50 µM
same,percentage of cells in the early stage of apoptosis,AGS cells [12]; 50 μM,71.2%
same,percentage of cells in the late stage of apoptosis,AGS cells [12]; 50 μM,9.6%
same,reduction of [3H]-thymidine incorporation,AGS cells [13],56.2%
same,p53 level,p53 in AGS cells,up‐regulated
"COc1ccc(-c2cc(=O)c3c(O)cc(OC)cc3o2)cc1 [apigenin−7,4'‐O‐dimethyl ether, apigenin 7,4'‐O‐dimethyl ether]",IC50,[11]; 24 h,23.6 ± 2.2 µM
same,IC50,[11]; 48 h,12.9 ± 0.5 µM
same,IC50,[11]; 72 h,19.7 ± 1.3 µM
COc1cc2oc(-c3ccc(O)cc3)cc(=O)c2c(O)c1OC [cirsimaritin],reduction of [3H]-thymidine incorporation,DLD‐1 cells [2],10.0%
same,decrease in number of colonies,AGS cells [3],75.7%
same,p53 level,p53 in DLD‐1 cells,decreased
same,reduction of [3H]-thymidine incorporation,HepG2 cells [4],53.6%
same,p53 level,p53 in HepG2 cells,increased significantly
same,percentage of cells in the early stage of apoptosis,"DLD‐1 cells [7]; DLD-1, 50 μM",51.5%
same,percentage of cells in the late stage of apoptosis,"DLD‐1 cells [7]; DLD-1, 50 μM",15.5%
same,IC50,[9]; 48 h,31.7 ± 2.4 µM
same,IC50,[9]; 72 h,17.1 ± 1.4 µM
same,percentage of cells in the early stage of apoptosis,"HepG2 cells [10]; HepG2, 50 μM",51.2%
same,percentage of cells in the late stage of apoptosis,"HepG2 cells [10]; HepG2, 50 μM",5.4%
same,IC50,[11]; 24 h,> 50 µM
same,IC50,[11]; 48 h,> 50 µM
same,IC50,[11]; 72 h,> 50 µM
same,percentage of cells in the early stage of apoptosis,AGS cells [12]; 50 μM,37.0%
same,percentage of cells in the late stage of apoptosis,AGS cells [12]; 50 μM,7.4%
same,reduction of [3H]-thymidine incorporation,AGS cells [13],24.5%
same,p53 level,p53 in AGS cells,increased significantly
COc1ccc(-c2oc3cc(O)cc(O)c3c(=O)c2OC)cc1 [ermanin],reduction in viability,[1]; 48 h,over 80%
same,reduction in viability,[1]; 72 h,over 80%
same,IC50,"[1]; DLD-1, 48 h",49.3 ± 2.5 µM
same,reduction of [3H]-thymidine incorporation,DLD‐1 cells [2],29.1%
same,reduction of [3H]-thymidine incorporation,HepG2 cells [4],85.2%
same,reduction in viability,[8]; 48 h,over 80%
same,reduction in viability,[8]; 72 h,over 80%
same,reduction in viability,[9]; 48 h,over 80%
same,reduction in viability,[9]; 72 h,over 80%
same,IC50,[9]; 48 h,49.3 ± 3.3 µM
same,IC50,[9]; 72 h,44.5 ± 3.1 µM
same,reduction of [3H]-thymidine incorporation,AGS cells [13],28.2%
COc1cc(O)c2c(=O)c(OC)c(-c3ccc(O)cc3)oc2c1 [kumatakenin],IC50,[11]; 72 h,41.6 ± 3.5 µM
O=c1c(O)c(-c2ccc(O)c(O)c2)oc2cc(O)cc(O)c12 [quercetin],IC50,[9]; 72 h,28.4 ± 2.5 µM
COc1ccc(-c2oc3cc(O)c(OC)c(O)c3c(=O)c2OC)cc1 [santin],IC50,"[1]; DLD-1, 24 h",> 50 µM
same,IC50,"[1]; DLD-1, 48 h",28 ± 1.3 µM
same,IC50,"[1]; DLD-1, 72 h",36.5 ± 2.5 µM
same,reduction of [3H]-thymidine incorporation,DLD‐1 cells [2],35.0%
same,decrease in colony numbers,AGS cells [3]; 3.125 μM,77.4%
same,p53 level,p53 in DLD‐1 cells,decreased
same,reduction of [3H]-thymidine incorporation,HepG2 cells [4],74.9%
same,decrease in number of colonies,"DLD‐1 cells [5]; DLD-1, 6.25 μM",60%
same,p53 level,p53 in HepG2 cells,increased significantly
same,decrease in colony numbers,"HepG2 cells [6]; HepG2, 3.125 μM",65.8%
same,percentage of cells in the early stage of apoptosis,"DLD‐1 cells [7]; DLD-1, 12.5 μM",54.8%
same,percentage of cells in the late stage of apoptosis,"DLD‐1 cells [7]; DLD-1, 12.5 μM",6.7%
same,IC50,"[8]; HepG2, 24 h",> 50 µM
same,IC50,"[8]; HepG2, 48 h",19.8 ± 0.9 µM
same,IC50,"[8]; HepG2, 72 h",22.7 ± 1.6 µM
same,IC50,[9]; 24 h,> 50 µM
same,IC50,[9]; 48 h,17.1 ± 0.8 µM
same,IC50,[9]; 72 h,13.9 ± 1.2 µM
same,percentage of cells in the early stage of apoptosis,"HepG2 cells [10]; HepG2, 12.5 μM",36.6%
same,percentage of cells in the late stage of apoptosis,"HepG2 cells [10]; HepG2, 12.5 μM",16.1%
same,IC50,[11]; 24 h,> 50 µM
same,IC50,[11]; 48 h,> 50 µM
same,IC50,[11]; 72 h,> 50 µM
same,percentage of cells in the early stage of apoptosis,AGS cells [12]; 12.5 μM,65.8%
same,percentage of cells in the late stage of apoptosis,AGS cells [12]; 12.5 μM,7.6%
same,reduction of [3H]-thymidine incorporation,AGS cells [13],48.0%
same,p53 level,p53 in AGS cells,increased significantly
